In patent US5843904A, “Inhibitors of interleukin-1βconverting enzyme” (Vertex Pharmaceuticals, Inc., priority 1995, dated 1998):
Non-standard residues stand in square brackets, D forms with d. Residues, ends and D or L forms follow the SMILES beside them. No end group written: not given here. *: point of attachment. 4Abz = Nc1ccc(C(=O)O)cc1; Nphe = O=C(O)CNCc1ccccc1; Bz = O=C(c1ccccc1)*; CH2Cl = ClC*

Test system: primary cells or cell lines
Assay: not given
Conditions: inhibition of one or more ICE homologs; cited from earlier work

Compound | inhibition of apoptosis
Tyr-Val-Ala-Asp-chloromethylketone (YVAD-CH2Cl) | inhibition of apoptosis

Molecular target: T1, ICE (Homo sapiens, UniProt P29466)
T1 construct: The active enzyme exists as a tetramer of two p20 and two p10 subunits
T1 sequence (P29466 120-297 limits assumed): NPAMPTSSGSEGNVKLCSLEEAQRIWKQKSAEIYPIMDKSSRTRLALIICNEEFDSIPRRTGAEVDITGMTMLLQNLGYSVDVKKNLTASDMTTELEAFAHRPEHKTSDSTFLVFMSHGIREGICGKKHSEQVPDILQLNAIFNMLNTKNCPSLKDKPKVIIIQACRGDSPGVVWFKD
T1 sequence (P29466 317-404 limits assumed): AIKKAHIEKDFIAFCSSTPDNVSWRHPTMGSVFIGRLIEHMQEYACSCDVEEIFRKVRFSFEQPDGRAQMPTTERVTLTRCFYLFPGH
Assay: Inhibition of ICE: enzyme assay with UV-visible substrate (Succinyl-Tyr-Val-Ala-Asp-pNitroanilide)
Assay type: biochemical
Conditions: UV-visible substrate assay of Example 1; pH 8.1, 37° C., 80 μM substrate
Description: The term "Ki " refers to a numerical measure of the effectiveness of a compound in inhibiting the activity of a target enzyme such as ICE. Lower values of Ki reflect higher effectiveness. The Ki value is a derived by fitting experimentally determined rate data to standard enzyme kinetic equations (see I. H. Segel, Enzyme Kinetics, Wiley-Interscience, 1975).
1. Enzyme assay with UV-visible substrate
This assay is run using an Succinyl-Tyr-Val-Ala-Asp-pNitroanilide substrate. Synthesis of analogous substrates is described by L. A. Reiter (Int. J. Peptide Protein Res. 43, 87-96 (1994)). The assay mixture contains:
65 μl buffer (10 mM Tris, 1 mM DTT, 0.1% CHAPS @pH 8.1)
10 μl ICE (50 nM final concentration to give a rate of ~1 mOD/min)
5 μl DMSO/Inhibitor mixture 20 μl 400 μM Substrate (80 μM final concentration)
100 μl total reaction volume
The visible ICE assay is run in a 96-well microtiter plate. Buffer, ICE and DMSO (if inhibitor is present) are added to the wells in the order listed. The components are left to incubate at room temperature for 15 minutes starting at the time that all components are present in all wells. The microtiter plate reader is set to incubate at 37° C. After the 15 minute incubation, substrate is added directly to the wells and the reaction is monitored by following the release of the chromophore (pNA) at 405-603 nm at 37° C. for 20 minutes. A linear fit of the data is performed and the rate is calculated in mOD/min. DMSO is only present during experiments involving inhibitors, buffer is used to make up the volume to 100 μl in the other experiments.
The following Ki values were determined for compounds 706, 710, 719, 720, 725-727, 729, 731, 733, 743, 745, and 747-757 using the assay described in Example 1.

Compound | Ki
CC(C)[C@H](NC(=O)c1ccccc1)C(=O)N(CC(=O)N[C@@H](CC(=O)O)C(=O)c1nc2cc(F)cc(Cl)c2o1)Cc1ccccc1 [Compound 719] | 20 nM
CC(C)[C@H](NC(=O)OCc1ccccc1)C(=O)N(CC(=O)N[C@H](C=O)CC(=O)O)C1Cc2ccccc2C1 [Compound 757, 3(S)-(2-((2(S)-(Benzyloxycarbonylamino-3-methylbutyryl)-indan-2-yl)amino)acetylamino)-4-oxobutyric Acid] | 170 nM
CC(C)[C@H](NC(=O)c1ccccc1)C(=O)N(CC(=O)N[C@@H](CC(=O)O)C(=O)c1nc2cc(Cl)cc(Cl)c2o1)Cc1cccnc1 [Compound 720] | 33 nM
COc1cc(C(=O)C(=O)N[C@H](C(=O)N(CC(=O)N[C@H](C=O)CC(=O)O)Cc2ccccc2)C(C)C)cc(OC)c1OC [Compound 752] | 62 nM
CC(C)[C@H](NC(=O)c1ccc(Cl)cc1)C(=O)N(CC(=O)N[C@@H](CC(=O)O)C(=O)c1ncc(-c2c(Cl)cccc2Cl)o1)C1Cc2ccccc2C1 [Compound 733] | 7.5 nM
CC(C)(C)[C@H](NC(=O)c1nccc2ccccc12)C(=O)N(CC(=O)N[C@H](C=O)CC(=O)O)Cc1ccccc1 [Compound 747, 3(S)-(2(S)-(Benzyl-(2-((isoquinoline-1-carbonyl)amino)-3,3-dimethylbutyryl)amino)acetylamino)-4-oxo-butyric Acid] | 24 nM
CC(C)[C@H](NC(=O)c1ccccc1)C(=O)N(CC(=O)N[C@@H](CC(=O)O)C(=O)c1nc2cc(F)cc(F)c2o1)C1Cc2ccccc2C1 [Compound 726] | 15 nM

Second part, the compound after the results:

Ki | Compound
6 nM | CC(C)[C@H](NC(=O)c1nccc2ccccc12)C(=O)N(CC(=O)N[C@H](C=O)CC(=O)O)Cc1ccccc1 [Compound 748, 3(S)-(2(S)-(Benzyl-(2-((isoquinoline-1-carbonyl)amino)-3-methylbutyryl)amino)acetylamino)-4-oxo-butyric Acid]
53 nM | CC(C)[C@H](NC(=O)C(=O)c1ccccc1)C(=O)N(CC(=O)N[C@H](C=O)CC(=O)O)Cc1ccccc1 [Compound 753, 3(S)-(2(S)-(Benzyl(3-methyl-2-(2-oxo-2-phenylacetylamino)butyryl)amino)acetylamino)-4-oxo-butyric Acid]
69 nM | CC(C)[C@H](NC(=O)c1ccccc1)C(=O)N(CC(=O)N[C@H](C=O)CC(=O)O)Cc1ccccc1 [Compound 706, 3(S)-(2-((2(S)-Benzoylamino-3-methylbutyryl)benzylamino)acetylamino)-4-oxo-butyric Acid] (Bz-Val-[Nphe]-Asp-aldehyde)
45 nM | CC(C)[C@H](NC(=O)c1ccccc1)C(=O)N(CC(=O)N[C@H](C=O)CC(=O)O)Cc1cccc(NS(C)(=O)=O)c1 [Compound 745]
7 nM | CC(C)[C@H](NC(=O)c1cccc2ccccc12)C(=O)N(CC(=O)N[C@H](C=O)CC(=O)O)Cc1ccccc1 [Compound 749, 3(S)-(2(S)-(Benzyl-(2-((napthalene-1-carbonyl)amino)-3-methylbutyryl)amino)acetylamino)-4-oxo-butyric Acid]
2500 nM | CC(C)[C@H](NC(=O)c1ccccc1)C(=O)N(CC(=O)N[C@@H](C=O)CCC(=O)O)Cc1ccccc1 [Compound 754, 4(R)-(2(S)-((2-Benzoylamino-3-methylbutyryl)benzylamino)acetylamino)-5-oxopentanoic Acid] (Bz-Val-[Nphe]-[dE]-aldehyde)
71 nM | CC(=O)Nc1ccc(C(=O)N[C@H](C(=O)N(CC(=O)N[C@H](C=O)CC(=O)O)Cc2ccccc2)C(C)C)cc1 [Compound 751, 3(S)-(2-((2(S)-(4-Acetylaminobenzoyl)amino-3-methylbutyryl)benzylamino)acetylamino)-4-oxo-butyric Acid] (Ac-[4Abz]V[Nphe]D-aldehyde)
90 nM | CC(C)[C@H](NC(=O)c1ccc(Cl)cc1)C(=O)N(CC(=O)N[C@H](C=O)CC(=O)O)Cc1ccccc1 [Compound 750, 3(5)-(2-((2(S)-(4-Chlorobenzoyl)amino-3-methylbutyryl)benzylamino)acetylamino)-4-oxo-butyric Acid]
390 nM | CC(C)[C@H](NC(=O)c1nccc2ccccc12)C(=O)N(CC(=O)N[C@@H](C=O)CCC(=O)O)Cc1ccccc1 [Compound 755, 4(R)-(2(S)-(Benzyl-(2-((isoquinoline-1-carbonyl)amino)-3-methylbutyryl)amino)acetylamino)-5-oxopentanoic Acid]
60 nM | CC(=O)Nc1cccc(CN(CC(=O)N[C@H](C=O)CC(=O)O)C(=O)[C@@H](NC(=O)c2ccccc2)C(C)C)c1 [Compound 743, 3(S)-(2-((3-Acetylaminobenzyl)-(2(S)-benzoylamino-3-methylbutyryl)amino)acetylamino)-4-oxo-butyric Acid]
